In paper PMC7999182, “Interaction of Remdesivir with Clinically Relevant Hepatic Drug Uptake Transporters” (Pharmaceutics, 2021):

Legend:
OATP2B1 = target: T1, OATP2B1 (Homo sapiens, UniProt O94956); assay: Inhibition of OATP2B1-mediated estrone sulfate uptake; format: cell-based
T1 construct: expressed in transfected cells
T1 sequence (O94956 1-709): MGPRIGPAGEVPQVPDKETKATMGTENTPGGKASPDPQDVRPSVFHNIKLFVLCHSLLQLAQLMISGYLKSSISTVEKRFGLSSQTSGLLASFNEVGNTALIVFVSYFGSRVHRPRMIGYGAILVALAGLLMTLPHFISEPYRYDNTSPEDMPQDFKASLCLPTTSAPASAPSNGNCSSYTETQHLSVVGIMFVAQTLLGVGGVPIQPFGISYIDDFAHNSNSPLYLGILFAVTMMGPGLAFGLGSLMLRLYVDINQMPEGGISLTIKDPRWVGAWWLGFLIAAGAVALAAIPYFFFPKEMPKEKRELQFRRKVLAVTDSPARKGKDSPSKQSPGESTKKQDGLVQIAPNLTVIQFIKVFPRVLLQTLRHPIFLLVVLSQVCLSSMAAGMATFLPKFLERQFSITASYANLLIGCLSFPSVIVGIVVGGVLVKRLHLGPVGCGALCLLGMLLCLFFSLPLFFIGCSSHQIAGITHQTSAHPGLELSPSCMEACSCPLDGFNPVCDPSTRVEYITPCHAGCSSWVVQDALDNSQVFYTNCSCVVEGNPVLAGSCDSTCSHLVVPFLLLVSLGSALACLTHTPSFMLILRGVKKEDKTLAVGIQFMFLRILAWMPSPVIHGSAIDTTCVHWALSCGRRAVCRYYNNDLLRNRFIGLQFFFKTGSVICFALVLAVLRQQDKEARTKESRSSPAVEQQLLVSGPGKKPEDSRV
Text: (§1) Generation, cultivation and characterization of human embryonic kidney (HEK) cells stably expressing OATP1B1 refseq (=OATP1B1*1a), OATP1B1*1b, OATP1B1*5 and OATP1B1*15 [18], OATP1B3 [19], OATP2B1 [13] and OCT1 [20] have been described previously. OATP1B1 cells were cultivated in minimal essential medium (Life Technologies, Paisley, UK) and OATP1B3, OATP2B1 and OCT1 cells were cultivated in Dulbecco’s modified Eagle medium (Sigma, Darmstadt, Germany). Cultivation media were supplemented with 10% fetal calf serum, 100 U/mL penicillin and 100 µg/mL streptomycin. Cells were grown at 37 °C and 5% CO2. Functionality of the cells was confirmed by measuring uptake of prototypic substrates (see Section 2.3 and supplementary material).
Prototypic substrate uptake was performed as described previously. For this, uptake solutions contained the respective substrate with tracer amounts of radiolabeled substrate. In case of inhibition studies, uptake solutions additionally contained different concentrations of remdesivir. […] Cells were then lysed with 0.2% sodium dodecyl sulfate and intracellular radioactivity was measured by liquid scintillation counting (Tricarb2800, PerkinElmer Life Sciences GmbH, Rodgau, Germany or Hidex 300SL TDCR liquid scintillation counter, Turku, Finland). […]

[1] = system: vector-transfected control cells; assay: Remdesivir accumulation into vector-transfected control HEK cells; format: in vitro ADME, human; conditions: 5 µM remdesivir, 10 min
Text: as §1
Uptake assays were conducted at 37 °C according to previously described methods. For this, cells were seeded in 24-well plates (320,000 cells/well) and cultured for 2 days. Cells were then incubated for a further 24 h in culture medium with 5 mM butyrate (OATP1B3, OATP2B1, OCT1) or 10 mM butyrate (OATP1B1) to increase protein levels of recombinant transporters. […]
Remdesivir was determined by UHPLC-MS-MS analysis on an Agilent 1290 infinity UHPLC system coupled to an Agilent 6495B triple quadrupole mass spectrometer (Agilent, Waldbronn, Germany) similar to a recently published method. […]

## CCC(CC)COC(=O)[C@H](C)N[P@](=O)(OC[C@H]1O[C@@](C#N)(c2ccc3c(N)ncnn23)[C@H](O)[C@@H]1O)Oc1ccccc1 [Remdesivir]
OATP2B1; 1 µM estrone sulfate, 30 sec uptake, different remdesivir concentrations
  Effect on prototypic substrate uptake: significant concentration-dependent inhibitory effect
OATP2B1; 10 µM remdesivir, estrone sulfate as substrate
  Transporter inhibition at 10 µM: inhibition
[1]
  Accumulation into control cells: high remdesivir accumulation
